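Growth conditions: 96-well plates. Treatment: test compound, 48 hours, 5 concentrations. Analysis: linear interpolation between bracketing concentrations; unreached endpoints set to highest concentration. The concentration for 50% growth inhibition is given as GI50.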 Calls of active or inactive are those of the source. No stated cut-off is given here; in the data, active = GI50 up to about 1.1 µM and inactive = higher.
Columns and labels:
Assay in all cases: DTP human tumour cell line panel, 48 h
U-251 = test system: U-251
LOX IMVI = test system: LOX IMVI
RXF 631 = test system: RXF 631
786-0 = test system: 786-0
ACHN = test system: ACHN
COLO 205 = test system: COLO 205
SK-MEL-5 = test system: SK-MEL-5
SK-MEL-28 = test system: SK-MEL-28
A549 = test system: A549
NCI-H226 = test system: NCI-H226
UO-31 = test system: UO-31
IGROV-1 = test system: IGROV-1
OVCAR-4 = test system: OVCAR-4
OVCAR-8 = test system: OVCAR-8
TK-10 = test system: TK-10
SR = test system: SR
HL-60 = test system: HL-60
HCT-116 = test system: HCT-116
A498 = test system: A498
SNB-75 = test system: SNB-75
SF-268 = test system: SF-268
SF-539 = test system: SF-539
KM-20L2 = test system: KM-20L2
SN12C = test system: SN12C
LXFL 529 = test system: LXFL 529
NCI-H522 = test system: NCI-H522
M14 = test system: M14
SW-620 = test system: SW-620
HOP-92 = test system: HOP-92
DLD-1 = test system: DLD-1
KM12 = test system: KM12
CAKI-1 = test system: CAKI-1
SF-295 = test system: SF-295
HT-29 = test system: HT-29
CCRF-CEM = test system: CCRF-CEM
MOLT-4 = test system: MOLT-4
UACC-257 = test system: UACC-257
SNB-78 = test system: SNB-78
OVCAR-3 = test system: OVCAR-3
NCI-H23 = test system: NCI-H23
NCI-H460 = test system: NCI-H460
EKVX = test system: EKVX
HOP-18 = test system: HOP-18
UACC-62 = test system: UACC-62
HCC 2998 = test system: HCC 2998
DMS-114 = test system: DMS-114
Malme-3M = test system: Malme-3M
XF498 = test system: XF498
HOP-62 = test system: HOP-62
SNB-19 = test system: SNB-19
K562 = test system: K562
RXF 393 = test system: RXF 393
SK-OV-3 = test system: SK-OV-3
DMS-273 = test system: DMS-273
M19-MEL = test system: M19-MEL
RPMI-8226 = test system: RPMI-8226
HCT-15 = test system: HCT-15
SK-MEL-2 = test system: SK-MEL-2
OVCAR-5 = test system: OVCAR-5

CCN1N=CSC12C(=O)N(c1ccccc1)C(=O)N2c1ccccc1 (stereo unspecified)
GI50 (U-251): > 100 µM (inactive) | GI50 (LOX IMVI): > 100 µM (inactive) | GI50 (RXF 631): > 100 µM (inactive) | GI50 (786-0): > 100 µM (inactive) | GI50 (ACHN): > 100 µM (inactive) | GI50 (COLO 205): > 100 µM (inactive) | GI50 (SK-MEL-5): > 100 µM (inactive) | GI50 (SK-MEL-28): > 100 µM (inactive) | GI50 (A549): > 100 µM (inactive) | GI50 (NCI-H226): > 100 µM (inactive) | GI50 (UO-31): > 100 µM (inactive) | GI50 (IGROV-1): > 100 µM (inactive) | GI50 (OVCAR-4): > 100 µM (inactive) | GI50 (OVCAR-8): > 100 µM (inactive) | GI50 (TK-10): > 100 µM (inactive) | GI50 (SR): > 100 µM (inactive) | GI50 (HL-60): 80.5 µM (inactive) | GI50 (HCT-116): > 100 µM (inactive) | GI50 (A498): > 100 µM (inactive) | GI50 (SNB-75): > 100 µM (inactive) | GI50 (SF-268): > 100 µM (inactive) | GI50 (SF-539): > 100 µM (inactive) | GI50 (KM-20L2): > 100 µM (inactive) | GI50 (SN12C): > 100 µM (inactive) | GI50 (LXFL 529): > 100 µM (inactive) | GI50 (NCI-H522): > 100 µM (inactive) | GI50 (M14): > 100 µM (inactive) | GI50 (SW-620): > 100 µM (inactive) | GI50 (HOP-92): > 100 µM (inactive) | GI50 (DLD-1): > 100 µM (inactive) | GI50 (KM12): > 100 µM (inactive) | GI50 (CAKI-1): > 100 µM (inactive) | GI50 (SF-295): > 100 µM (inactive) | GI50 (HT-29): > 100 µM (inactive) | GI50 (CCRF-CEM): > 100 µM (inactive) | GI50 (MOLT-4): > 100 µM (inactive) | GI50 (UACC-257): > 100 µM (inactive) | GI50 (SNB-78): > 100 µM (inactive) | GI50 (OVCAR-3): > 100 µM (inactive) | GI50 (NCI-H23): > 100 µM (inactive) | GI50 (NCI-H460): > 100 µM (inactive) | GI50 (EKVX): > 100 µM (inactive) | GI50 (HOP-18): > 100 µM (inactive) | GI50 (UACC-62): > 100 µM (inactive) | GI50 (HCC 2998): > 100 µM (inactive) | GI50 (DMS-114): 57.8 µM (inactive) | GI50 (Malme-3M): > 100 µM (inactive) | GI50 (XF498): 32.7 µM (inactive) | GI50 (HOP-62): > 100 µM (inactive) | GI50 (SNB-19): > 100 µM (inactive) | GI50 (K562): > 100 µM (inactive) | GI50 (RXF 393): > 100 µM (inactive) | GI50 (SK-OV-3): > 100 µM (inactive)

O=C(O)CCC1CCc2cccc(O)c2C1=O (stereo unspecified)
GI50 (U-251): > 100 µM (inactive) | GI50 (LOX IMVI): > 100 µM (inactive) | GI50 (RXF 631): > 100 µM (inactive) | GI50 (ACHN): > 100 µM (inactive) | GI50 (COLO 205): > 100 µM (inactive) | GI50 (DMS-273): > 100 µM (inactive) | GI50 (SK-MEL-28): > 100 µM (inactive) | GI50 (M19-MEL): > 100 µM (inactive) | GI50 (IGROV-1): > 100 µM (inactive) | GI50 (OVCAR-4): > 100 µM (inactive) | GI50 (HL-60): > 100 µM (inactive) | GI50 (A498): > 100 µM (inactive) | GI50 (RPMI-8226): > 100 µM (inactive) | GI50 (SF-539): > 100 µM (inactive) | GI50 (KM-20L2): > 100 µM (inactive) | GI50 (SN12C): > 100 µM (inactive) | GI50 (LXFL 529): > 100 µM (inactive) | GI50 (M14): > 100 µM (inactive) | GI50 (HOP-92): > 100 µM (inactive) | GI50 (HCT-15): > 100 µM | GI50 (CCRF-CEM): > 100 µM (inactive) | GI50 (MOLT-4): > 100 µM (inactive) | GI50 (SNB-78): > 100 µM (inactive) | GI50 (NCI-H23): > 100 µM (inactive) | GI50 (NCI-H460): > 100 µM (inactive) | GI50 (HOP-18): > 100 µM (inactive) | GI50 (UACC-62): > 100 µM (inactive) | GI50 (DMS-114): > 100 µM (inactive) | GI50 (XF498): > 100 µM (inactive) | GI50 (SNB-19): > 100 µM (inactive) | GI50 (K562): > 100 µM (inactive) | GI50 (RXF 393): > 100 µM (inactive) | GI50 (SK-OV-3): > 100 µM (inactive)

C[C@]12CCCC(=O)C1C[C@H](C(=O)O)CC2 (stereo partly specified)
GI50 (U-251): > 100 µM (inactive) | GI50 (LOX IMVI): > 100 µM (inactive) | GI50 (RXF 631): > 100 µM (inactive) | GI50 (786-0): > 100 µM (inactive) | GI50 (ACHN): > 100 µM (inactive) | GI50 (COLO 205): > 100 µM (inactive) | GI50 (DMS-273): > 100 µM (inactive) | GI50 (SK-MEL-2): > 100 µM (inactive) | GI50 (SK-MEL-28): > 100 µM (inactive) | GI50 (M19-MEL): > 100 µM (inactive) | GI50 (OVCAR-5): > 100 µM (inactive) | GI50 (A549): > 100 µM (inactive) | GI50 (NCI-H226): > 100 µM (inactive) | GI50 (UO-31): > 100 µM (inactive) | GI50 (IGROV-1): > 100 µM (inactive) | GI50 (OVCAR-4): > 100 µM (inactive) | GI50 (OVCAR-8): > 100 µM (inactive) | GI50 (TK-10): > 100 µM (inactive) | GI50 (SR): > 100 µM (inactive) | GI50 (HL-60): > 100 µM (inactive) | GI50 (HCT-116): > 100 µM (inactive) | GI50 (A498): > 100 µM (inactive) | GI50 (SNB-75): > 100 µM (inactive) | GI50 (RPMI-8226): > 100 µM (inactive) | GI50 (SF-268): > 100 µM (inactive) | GI50 (SF-539): > 100 µM (inactive) | GI50 (KM-20L2): > 100 µM (inactive) | GI50 (SN12C): > 100 µM (inactive) | GI50 (LXFL 529): > 100 µM (inactive) | GI50 (NCI-H522): > 100 µM (inactive) | GI50 (M14): > 100 µM (inactive) | GI50 (SW-620): > 100 µM (inactive) | GI50 (HOP-92): > 100 µM (inactive) | GI50 (DLD-1): > 100 µM (inactive) | GI50 (KM12): > 100 µM (inactive) | GI50 (HCT-15): > 100 µM | GI50 (CAKI-1): > 100 µM (inactive) | GI50 (SF-295): > 100 µM (inactive) | GI50 (HT-29): > 100 µM (inactive) | GI50 (CCRF-CEM): > 100 µM (inactive) | GI50 (MOLT-4): > 100 µM (inactive) | GI50 (UACC-257): > 100 µM (inactive) | GI50 (OVCAR-3): > 100 µM (inactive) | GI50 (NCI-H23): > 100 µM (inactive) | GI50 (NCI-H460): > 100 µM (inactive) | GI50 (HOP-18): > 100 µM (inactive) | GI50 (UACC-62): > 100 µM (inactive) | GI50 (HCC 2998): > 100 µM (inactive) | GI50 (DMS-114): > 100 µM (inactive) | GI50 (Malme-3M): > 100 µM (inactive) | GI50 (XF498): > 100 µM (inactive) | GI50 (HOP-62): > 100 µM (inactive) | GI50 (SNB-19): > 100 µM (inactive) | GI50 (K562): > 100 µM (inactive) | GI50 (SK-OV-3): > 100 µM (inactive)

Source: ChEMBL document CHEMBL1201862, “PubChem BioAssay data set” (2004)
